The text below walks through data of US20210046160A1 (Synthorx, Inc., priority 2019, published 2021).

The test system of data set [1] is Treg cells. Nature of the data set: pSTAT5 concentration-response in human LRS-derived PBMC samples (flow cytometry): Treg cells. It is filed as cell-based. Conditions: Table 4; ratio of pSTAT5 EC50 values. On the procedure: These studies were performed at PrimityBio LLC (Fremont, Calif.). […] Staining panel for flow cytometry study of LRS-derived PBMC samples include markers for Effector T cells (Teff: CD3+, CD4+, CD8+, CD127+), NK cells (CD3-, CD16+), and Regulatory T cells (Treg: CD3+, CD4+, CD8-, IL-2Rα+, CD127-1).
The EC50 values (pg/mL) was calculated from dose response curves generated from MFI plots.
These studies were performed at PrimityBio LLC (Fremont, Calif.). […] Staining panel for flow cytometry study of LRS-derived PBMC samples include markers CD4, CD4+ memory central, CD4+ memory effect, CD4+ memory T cells, CD4+ Naive T cells, CD4+ T cells, CD8, CD8+ memory central, CD8+ memory effect, CD8+ memory T cells, CD8+ Naive T cells, CD8+ T cells, NK cells, and T regulatory cells.
Conjugates of Table 12 were synthesized by modification of SEQ NO. 1. These studies were performed at PrimityBio LLC (Fremont, Calif.).
The EC50 values (pg/ml) were calculated from dose response curves generated from the MFI plots.
On the technique in general: A flow cytometer gives signals particle by particle.

Data set [2] can be described thus: MTD / toxicology study E3826-U1802 in naïve Balb/c mice (hematology, histopathology, organ weight, cytokines). It counts as in vivo. Conditions: mouse, in vivo. On the procedure:
A dose ranging study of P65_30kD was conducted in naïve female Balb/c mice at Crown Biosciences, Inc. (San Diego, Calif.). […] Blood samples were drawn via sub mandibular vein at 8 time points (0.25, 1, 4, 12, 24, 34, 48 & 72 h).
A major of toxicity associated with high-dose aldesleukin is vascular leak syndrome and associated Cytokine Release Syndrome (CRS). […] The analysis performed was hematology, histopathology, organ weight, and cytokine analyses.

Data set [3] has as its system CTLL-2. Nature of the data set: CTLL-2 proliferation. It is filed as cell-based. Conditions: Table 4.

“P65_30kD: SEQ ID NO: 25: IL-2 (SEQ ID NO: 4) with P65 replaced by AzK click-conjugated to methoxy linear 30 kDa PEG [Compound P65_30kD]”: in data set [1], the CD8/Treg ratio was 2.8. Moreover, in data set [2], the “systemic levels of IFNγ” value is “transient elevation”. Besides, the “EC50, CTLL-2 proliferation” value in data set [3] was 677,198 pg/mL.
